Key:
[1] = First-in-human PET/CT dosimetry study; type: in vivo; settings: for ED: first-in-human (clinical)
Description: The first-in-human use of (S)-(−)-[^18F]fluspidine was authorized by the competent authorities in Germany, the Federal Institute for Drugs and Medical Devices (Bundesamt für Arzneimittel und Medizinprodukte, BfArM) and the Federal Office for Radiation Protection (Bundesamt für Strahlenschutz, BfS) as well as by the local ethics committee and was conducted in accordance with the Declaration of Helsinki. Informed consent was obtained from four healthy volunteers (2 f, 2 m; age: 23 ± 3 years; weight: 56 ± 4 kg). The volunteers were positioned supine with the arms down in a clinical PET/CT system (Biograph 16, Siemens, Erlangen, Germany) and received an intravenous injection of 255 ± 9 MBq (S)-(−)-[^18F]fluspidine. Simultaneously, the PET scan was started. It was divided into a dynamic part up to 2 h p.i. (7 frames) and a static part up to 7 h p.i. The volunteers left the investigation table four times to stretch out. All urine was collected, weighed, and the activity was determined in a gamma-counter (Packard Cobra II 5003 Auto Gamma Counting System, GMI, Ramsey, MN, USA) cross calibrated to the PET/CT system.
The PET images were iteratively (ordered-subsets expectation maximization, OSEM) reconstructed (preclinical: 4 iterations, 6 subsets; clinical: 4 iterations, 8 subsets) and corrected for decay, randoms, scatter, and dead time, μ-maps for attenuation correction of PET-emission data were derived from the CT or MR [49] structural data, respectively. The PET data were re-binned into 10 time frames (preclinical: 4 × 5 min, 1 × 10 min, and 5 × 15 min; clinical: 4 × 12 min, 3 × 16 min, 1 × 32 min, 1 × 40 min, and 1 × 48 min), and the reconstructed PET/MRI and PET/CT images were co-registered manually with ROVER (ABX, advanced chemical compounds, Radeberg, Germany, version 2.1.17). Quantitative evaluation was performed by drawing volumes of interest (VOI) for brain, gallbladder, large intestine, small intestine, stomach, heart, kidneys, liver, lungs, pancreas, red marrow (backbone, pelvis, sternum), spleen, thyroid, testes, and urinary bladder (Figure S4). The PET derived biokinetic data is expressed as percentage of injected activity (dose) per cubic centimeter (%ID/cm^3).
The human dosimetry estimation was performed with the data extrapolated as well as the genuine human data using OLINDA/EXM software. The time-activity curves were estimated by exponential fitting and calculating the time integral, which equals the number of disintegrations (NODs) per organ during the observation period normalized to 1 Becquerel administered activity dose. […] Therefore, activity data of the urinary bladder was derived from the image for each time point. In contrast, for humans the activity concentration data of the urinary bladder was obtained in a more direct approach. At first, the activity and volume of urine was determined in the last frame of the PET scan before each micturition. Afterwards, the voided urine was collected, weighed, and the activity of three aliquots (assuming 1 mL = 1 g) determined with a gamma counter, and the activity of the whole sample estimated. The difference between imaged and sampled urine activity is equal to the residue of radioactive urine in the urinary bladder. To calculate the NOD in the human urinary bladder, the time-activity curve is integrated using a trapezoidal equation (3) %ID˜UB=1/2∑i=1n−1(%IDi+%IDi+1)(ti+1−ti) with the fraction of injected activity %IDi at the time ti and the cumulated activity of the urinary bladder i.e., the NOD %ID˜UB .
Furthermore, the NODs of the gastric system were calculated following the ICRP GI model (ICRP 30) as implemented in OLINDA 1.0. The NODs obtained either from the EXM module or the trapezoidal equation were transferred to OLINDA. The OD for the chosen hermaphroditic adult male phantom is estimated following the MIRD scheme. The S values are pre-calculated and implemented for the respective phantom in OLINDA. […]

[2] = target: σ1 receptors; design: method as in PMID 24130175; settings: read-out: Ki (affinity towards σ1 receptors); cited from earlier work
[3] = first-in-human PET/CT, adult male model
[4] = first-in-human PET/CT, ICRP 103 weighting
[5] = four volunteers after i.v. injection

FCC[C@@H]1OC2(CCN(Cc3ccccc3)CC2)c2ccccc21 [(S)-(−)-[^18F]fluspidine]
ED ([1]; four healthy volunteers, ICRP 103 weighting): 21.0 ± 1.3 μSv/MBq
ED ([1]; four healthy volunteers, ICRP 103 weighting, listed as (S)-(−)-[^18F]Fluspidine): 21.0 μSv/MBq
OD Adrenals [1, 3]: 15.3 μSv/MBq
OD Brain [1, 3]: 22.6 μSv/MBq
OD Breasts [1, 3]: 6.5 μSv/MBq
OD Gallbladder Wall [1, 3]: 60.7 μSv/MBq
OD Heart Wall [1, 3]: 17.7 μSv/MBq
OD Kidneys [1, 3]: 31.1 μSv/MBq
OD LLI Wall [1, 3]: 16.6 μSv/MBq
OD Liver [1, 3]: 76.0 μSv/MBq
OD Lungs [1, 3]: 28.2 μSv/MBq
OD Muscle [1, 3]: 7.8 μSv/MBq
OD Osteogenic Cells [1, 3]: 18.0 μSv/MBq
OD Ovaries [1, 3]: 13.8 μSv/MBq
OD Pancreas [1, 3]: 15.9 μSv/MBq
OD Red Marrow [1, 3]: 23.2 μSv/MBq
OD Skin [1, 3]: 5.3 μSv/MBq
OD Small Intestine [1, 3]: 56.9 μSv/MBq
OD Spleen [1, 3]: 24.0 μSv/MBq
OD Stomach Wall [1, 3]: 31.5 μSv/MBq
OD Testes [1, 3]: 8.0 μSv/MBq
OD Thymus [1, 3]: 7.5 μSv/MBq
OD Thyroid [1, 3]: 8.4 μSv/MBq
OD Total Body [1, 3]: 11.4 μSv/MBq
OD ULI Wall [1, 3]: 24.3 μSv/MBq
OD Urinary Bladder Wall [1, 3]: 24.7 μSv/MBq
OD Uterus [1, 3]: 13.0 μSv/MBq
ED Contr. Adrenals [1, 4]: 0.1 μSv/MBq
ED Contr. Brain [1, 4]: 0.2 μSv/MBq
ED Contr. Breasts [1, 4]: 0.8 μSv/MBq
ED Contr. Gallbladder Wall [1, 4]: 0.5 μSv/MBq
ED Contr. Heart Wall [1, 4]: 0.2 μSv/MBq
ED Contr. Kidneys [1, 4]: 0.3 μSv/MBq
ED Contr. LLI Wall [1, 4]: 1.0 μSv/MBq
ED Contr. Liver [1, 4]: 3.0 μSv/MBq
ED Contr. Lungs [1, 4]: 3.4 μSv/MBq
ED Contr. Muscle [1, 4]: 0.1 μSv/MBq
ED Contr. Osteogenic Cells [1, 4]: 0.2 μSv/MBq
ED Contr. Ovaries [1, 4]: 1.0 μSv/MBq
ED Contr. Pancreas [1, 4]: 0.1 μSv/MBq
ED Contr. Red Marrow [1, 4]: 2.8 μSv/MBq
ED Contr. Skin [1, 4]: 0.1 μSv/MBq
ED Contr. Small Intestine [1, 4]: 0.5 μSv/MBq
ED Contr. Spleen [1, 4]: 0.2 μSv/MBq
ED Contr. Stomach Wall [1, 4]: 3.8 μSv/MBq
ED Contr. Testes [1, 4]: 0.8 μSv/MBq
ED Contr. Thymus [1, 4]: 0.1 μSv/MBq
ED Contr. Thyroid [1, 4]: 0.3 μSv/MBq
ED Contr. Total Body [1, 4]: 0.0 μSv/MBq
ED Contr. ULI Wall [1, 4]: 1.5 μSv/MBq
ED Contr. Urinary Bladder Wall [1, 4]: 1.0 μSv/MBq
ED Contr. Uterus [1, 4]: 0.1 μSv/MBq
ED ICRP 60 ([1]; first-in-human, four healthy volunteers, ICRP 60 weighting): 22.1 μSv/MBq
adverse effects [1, 5]: no adverse effects reported
changes in vital signs [1, 5]: no significant changes in vital signs
clearance of the radioligand from organs ([1]; human TACs, brain, stomach, liver, spleen): rapidly removed from brain, stomach, liver, and spleen within one hour post injection
actual ED from the human study in comparison to the extrapolated animal data ([1]; human vs extrapolated animal data, p < 0.001): 1.6 fold
Ki [2]: 2.3 nM

From article PMC6273209, “Evaluation of the Enantiomer Specific Biokinetics and Radiation Doses of [^18F]Fluspidine—A New Tracer in Clinical Translation for Imaging of σ1 Receptors” (Molecules, 2016)
